Consider five molecules from ChEMBL document CHEMBL3774356, “Definitive Metabolite Identification Coupled with Automated Ligand Identification System (ALIS) Technology: A Novel Approach to Uncover Structure-Activity Relationships and Guide Drug Design in a Factor IXa Inhibitor Program” (J Med Chem, 2016).

The target in one series is Coagulation factor IX (Homo sapiens, UniProt P00740). The series can be described thus: Inhibition of human factor 9a using CH3SO2-DCHG-Gly-Arg-AFC.AcOH as substrate preinubated for 30 mins followed by substrate addition measured after 1 hr by fluorescence assay.
Coagulation factor IX, sequence (P00740 47-191 limits assumed): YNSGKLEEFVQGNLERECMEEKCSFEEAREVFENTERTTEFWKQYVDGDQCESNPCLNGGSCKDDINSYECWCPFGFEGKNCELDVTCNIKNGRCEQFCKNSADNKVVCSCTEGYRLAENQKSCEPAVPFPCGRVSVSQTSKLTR
Coagulation factor IX, sequence (P00740 227-461 limits assumed): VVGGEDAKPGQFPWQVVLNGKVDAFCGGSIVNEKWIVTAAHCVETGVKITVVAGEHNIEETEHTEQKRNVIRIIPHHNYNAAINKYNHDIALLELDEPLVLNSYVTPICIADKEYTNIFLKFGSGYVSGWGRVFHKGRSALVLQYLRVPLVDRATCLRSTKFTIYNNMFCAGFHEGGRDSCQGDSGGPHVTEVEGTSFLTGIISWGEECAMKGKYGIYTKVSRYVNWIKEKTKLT
Series [1] relates to Liver microsome. The series can be described thus: Drug level in human liver microsomes treated with (R)-2,6-Dichloro-N-(2-(3-fluorophenyl)-2-(2-methyl-1Hbenzo[d]imidazol-5-yl)ethyl)-4-(3-methyl-1H-1,2,4-triazol-1-yl)-benzamide after 4 hrs by LC-MS/MS analysis. The series is classed as ADME. On the technique in general: Liver microsomes are a subcellular fraction often used to study metabolism.

The subject of series [2] is Liver microsome. The series can be described thus: Drug level in Sprague-Dawley rat liver microsomes treated with (R)-2,6-Dichloro-N-(2-(3-fluorophenyl)-2-(2-methyl-1Hbenzo[d]imidazol-5-yl)ethyl)-4-(3-methyl-1H-1,2,4-triazol-1-yl)-benzamide after 4 hrs by LC-MS/MS analysis. The series is classed as ADME.
Series [3] in a line: Retention time of the compound by size exclusion chromatography. The series is classed as physicochemical. Background: Size exclusion chromatography separates by hydrodynamic size, large species first.
In series [4] the test system is Liver microsome. The series is described as follows: Drug level in beagle dog liver microsomes treated with (R)-2,6-Dichloro-N-(2-(3-fluorophenyl)-2-(2-methyl-1Hbenzo[d]imidazol-5-yl)ethyl)-4-(3-methyl-1H-1,2,4-triazol-1-yl)-benzamide at 100 uM after 4 hrs by LC-MS/MS analysis. It is filed as ADME, Canis lupus familiaris.
Another series deals with Rattus norvegicus. The series can be described thus: Dose normalized AUC in Hans-Wistar rat at 2 mg/kg, po. It is filed as ADME, organism-based. The settings on record: in vivo.
The test system of series [5] is Liver microsome. The series can be described thus: Drug metabolism in human liver microsomes assessed as (R)-2,6-dichloro-N-(2-(3-fluorophenyl)-2-(2-methyl-1H-benzo[d]imidazol-5-yl)ethyl)-4-(3-(hydroxymethyl)-1H-1,2,4-triazol-1-yl)benzamide formation after 4 hrs by LC-MS/MS analysis. It is filed as ADME.
Series [6] relates to Liver microsome. The series can be described thus: Drug metabolism in human liver microsomes assessed as (R)-2,6-dichloro-N-(2-(3-fluorophenyl)-2-hydroxy-2-(2-methyl-1H-benzo[d]imidazol-5-yl)ethyl)-4-(3-methyl-1H-1,2,4-triazol-1-yl)benzamide formation after 4 hrs by LC-MS/MS analysis. It is filed as ADME.
The subject of series [7] is Liver microsome. The series is described as follows: Drug metabolism in Sprague-Dawley rat liver microsomes assessed as (R)-2,6-dichloro-N-(2-(3-fluorophenyl)-2-(2-methyl-1H-benzo[d]imidazol-5-yl)ethyl)-4-(3-(hydroxymethyl)-1H-1,2,4-triazol-1-yl)benzamide formation after 4 hrs by LC-MS/MS analysis. It is filed as ADME.
The test system of series [8] is Liver microsome. The series is described as follows: Drug metabolism in Sprague-Dawley rat liver microsomes assessed as (R)-2,6-dichloro-N-(2-(3-fluorophenyl)-2-hydroxy-2-(2-methyl-1H-benzo[d]imidazol-5-yl)ethyl)-4-(3-methyl-1H-1,2,4-triazol-1-yl)benzamide formation after 4 hrs by LC-MS/MS analysis. It is filed as ADME.
Series [9] has as its system Liver microsome. The series is described as follows: Drug metabolism in beagle dog liver microsomes assessed as (R)-2,6-dichloro-N-(2-(3-fluorophenyl)-2-(2-methyl-1H-benzo[d]imidazol-5-yl)ethyl)-4-(3-(hydroxymethyl)-1H-1,2,4-triazol-1-yl)benzamide formation at 100 uM after 4 hrs by LC-MS/MS analysis. The series is classed as ADME, Canis lupus familiaris.
Series [10] has as its system Liver microsome. The series is described as follows: Drug metabolism in beagle dog liver microsomes assessed as (R)-2,6-dichloro-N-(2-(3-fluorophenyl)-2-hydroxy-2-(2-methyl-1H-benzo[d]imidazol-5-yl)ethyl)-4-(3-methyl-1H-1,2,4-triazol-1-yl)benzamide formation at 100 uM after 4 hrs by LC-MS/MS analysis. It is filed as ADME, Canis lupus familiaris.

In general, IC50 refers to the concentration at which inhibition is half-maximal. A high value points to a need for much substance. `Cc1ncn(-c2cc(Cl)c(C(=O)NC[C@@H](c3ccc(O)c(F)c3)c3ccc4[nH]c(C)nc4c3)c(Cl)c2)n1` yielded an IC50 against Coagulation factor IX of 1.86 nM. Besides, the Drug metabolism entry in the series on Liver microsome [1] and with Liver microsome [2] was “metabolite_detected” throughout. This molecule displayed a Retention_time in series [3] of 3.59 min.

Molecule `Cc1ncn(-c2cc(Cl)c(C(=O)NCC(O)(c3cccc(F)c3)c3ccc4[nH]c(C)nc4c3)c(Cl)c2)n1` (single isomer, unassigned) yielded an IC50 against Coagulation factor IX of 63.9 nM. Besides, the Drug metabolism result in the series with Liver microsome [1], with Liver microsome [2] and with Liver microsome [4] was “metabolite_detected” in each case. The Retention_time in [3] came out at 4.24 min.

A word on the Ki: it is the equilibrium dissociation constant of an inhibitor or competing ligand from its target. `Cc1ncn(-c2cc(Cl)c(C(=O)NC[C@@H](c3cccc(F)c3)c3cc(F)c4[nH]c(C)nc4c3)c(Cl)c2)n1` registered a Ki on Coagulation factor IX of 10.6 nM.

`Cc1nc2cc([C@@H](CNC(=O)c3c(Cl)cc(-n4cnc(CO)n4)cc3Cl)c3cccc(F)c3)ccc2[nH]1` yielded a half-inhibitory concentration (IC50) on Coagulation factor IX of 11 nM. The Drug metabolism result in the series with Liver microsome [1], in the series with Liver microsome [2] and in the series on Liver microsome [4] was “metabolite_detected” throughout. Besides, in [3], the Retention_time worked out at 3.84 min.

Take `Cc1ncn(-c2cc(Cl)c(C(=O)NC[C@@H](c3cccc(F)c3)c3ccc4[nH]c(C)nc4c3)c(Cl)c2)n1`: on Coagulation factor IX, half-maximal inhibition (IC50) required 9.99 nM. The molecule also yielded an AUC/dose in the series with Rattus norvegicus of 0.097 µM·h/mg/kg. Also, the Drug metabolism entry with Liver microsome [5], in the series on Liver microsome [6], with Liver microsome [7], in the series on Liver microsome [8], with Liver microsome [9] and in the series on Liver microsome [10] was “metabolite_detected” each time.
